The values that follow come from patent publication US8642799B2, “Cysteine protease inhibitors for the treatment of parasitic diseases” (Merck Canada Inc., priority 2007, dated 2014).

Sequence of cruzipain (P25779 123-467): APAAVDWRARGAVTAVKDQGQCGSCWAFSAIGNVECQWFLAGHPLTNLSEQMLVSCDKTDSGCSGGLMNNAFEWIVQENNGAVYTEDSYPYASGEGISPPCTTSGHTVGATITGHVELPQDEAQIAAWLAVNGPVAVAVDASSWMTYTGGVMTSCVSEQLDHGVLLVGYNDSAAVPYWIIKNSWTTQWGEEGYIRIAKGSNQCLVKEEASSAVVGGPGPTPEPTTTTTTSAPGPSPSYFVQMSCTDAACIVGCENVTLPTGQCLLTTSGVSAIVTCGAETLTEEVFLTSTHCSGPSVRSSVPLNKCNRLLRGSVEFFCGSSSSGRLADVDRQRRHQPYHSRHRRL

The test has as its target cruzipain (Trypanosoma cruzi, UniProt P25779). Put plainly: biochemical. The conditions noted are these: 50 pM cruzipain, pH 5.5, 15 minutes preincubation, 2 μM Z-Phe-Arg-AMC substrate. The protocol:
The assay solutions were mixed and incubated for 15 minutes at room temperature prior to the addition of 2 μM of Z-Phe-Arg-AMC substrate. […] Percent of inhibition were calculated by fitting experimental values to standard mathematical model for dose response curve.
Compound `CC(C)(F)C[C@H](N[C@@H](c1ccc(-c2ccc(-c3ccncc3)cc2)cc1)C(F)(F)F)C(=O)N[C@H](C#N)Cc1ccc(C#N)cc1F` [Example 39, (S)-4-Fluoro-4-methyl-2-[(S)-2,2,2-trifluoro-1-(4′-pyridin-4-yl-biphenyl-4-yl)-ethylamino]-pentanoic acid [(S)-1-cyano-2-(4-cyano-2-fluoro-phenyl)-ethyl]-amide] displayed an IC50 of 0.6 nM.
Under `CS(=O)(=O)c1ccc(-c2ccc([C@H](N[C@H](C(=O)N[C@H](C#N)Cc3ccc(C#N)cc3F)C3CC3)C(F)(F)F)cc2)cc1` [Example 68, (S)-N-[(S)-Cyano-(4-cyano-2-fluoro-benzyl)-methyl]-2-cyclopropyl-2-[(S)-2,2,2-trifluoro-1-(4′-methanesulfonyl-biphenyl-4-yl)-ethylamino]-acetamide] stands 4.4 nM; under `CC(C)[C@H](N[C@@H](c1ccc(-c2ccc(S(C)(=O)=O)cc2)cc1)C(F)(F)F)C(=O)N[C@H](C#N)Cc1c(F)cc(C#N)cc1F` [Example 72, (S)-N-[(S)-Cyano-(4-cyano-2,6-difluoro-benzyl)-methyl]-3-methyl-2-[(S)-2,2,2-trifluoro-1-(4,- methanesulfonyl-biphenyl-4-yl)-ethylamino]-butyramide], 0.5 nM.
Under `CC(C)(F)C[C@H](N[C@@H](c1ccc(-c2ccc(S(C)(=O)=O)cc2)cc1)C(F)(F)F)C(=O)N[C@H](C#N)Cc1ccc[n+]([O-])c1` [Example 74, (S)-4-Fluoro-4-methyl-2-[(S)-2,2,2-trifluoro-1-(4′-methanesulfonyl-biphenyl-4-yl)-ethylamino]-pentanoic acid [(S)-cyano-(1-oxy-pyridin-3-ylmethyl)-methyl]-amide] stands 39 nM.
Under `CC(C)(F)C[C@H](N[C@@H](c1ccc(-c2ccc(S(C)(=O)=O)cc2)cc1)C(F)(F)F)C(=O)N[C@H](C#N)Cc1ccc(C(F)(F)F)cc1F` [Example 46, (S)-4-Fluoro-4-methyl-2-[(S)-2,2,2-trifluoro-1-(4′-methanesulfonyl-biphenyl-4-yl)-ethylamino]-pentanoic acid [(S)-cyano-(2-fluoro-4-trifluoromethyl-benzyl)-methyl]-amide] stands 1.5 nM; under `CC(C)(F)C[C@H](N[C@@H](c1ccc(-c2ccc(S(C)(=O)=O)cc2)cc1)C(F)(F)F)C(=O)N[C@H](C#N)Cc1ccc(C(F)(F)F)cc1` [Example 19, (S)-4-Fluoro-4-methyl-2-[(S)-2,2,2-trifluoro-1-(4′-methanesulfonyl-biphenyl-4-yl)-ethylamino]-pentanoic acid [(S)-1-cyano-2-(4-trifluoromethyl-phenyl)-ethyl]-amide], 12.4 nM.
The compound `CC(C)(F)C[C@H](N[C@@H](c1ccc(-c2ccc(S(C)(=O)=O)cc2)cc1)C(F)(F)F)C(=O)N[C@H](C#N)Cc1c(F)cc(C#N)cc1F` [Example 67, (S)-4-Fluoro-4-methyl-2-[(S)-2,2,2-trifluoro-1-(4′-methanesulfonyl-biphenyl-4-yl)-ethylamino]-pentanoic acid [(S)-cyano-(4-cyano-2,6-difluoro-benzyl)-methyl]-amide] displayed an IC50 of 0.9 nM.
Under `CC(C)(F)C[C@H](N[C@@H](c1ccc(-c2ccc(C3(C(=O)N4CCOCC4)CC3)cc2)cc1)C(F)(F)F)C(=O)N[C@H](C#N)Cc1ccc(C#N)cc1F` [Example 43, (S)-4-Fluoro-4-methyl-2-((S)-2,2,2-trifluoro-1-{4′-[1-(morpholine-4-carbonyl)-cyclopropyl]-biphenyl-4-yl}-ethylamino)-pentanoic acid [(S)-1-cyano-2-(4-cyano-2-fluoro-phenyl)-ethyl]-amide] stands 0.35 nM; under `CSc1ccc(-c2ccc([C@H](N[C@@H](CC(C)(C)F)C(=O)N[C@H](C#N)Cc3ccc(C#N)cc3F)C(F)(F)F)cc2)cc1` [Example 26, (S)-4-Fluoro-4-methyl-2-[(S)-2,2,2-trifluoro-1-(4′-methylsulfanyl-biphenyl-4-yl)-ethylamino]-pentanoic acid [(S)-1-cyano-2-(4-cyano-2-fluoro-phenyl)-ethyl]-amide], 4.2 nM.
Then `COC(=O)CNC(=O)C1(c2ccc(-c3ccc([C@H](N[C@@H](CC(C)(C)F)C(=O)N[C@H](C#N)Cc4ccccc4)C(F)(F)F)cc3)cc2)CC1` [Example 53, ({1-[4′-((S)-1-{(S)-1-[((S)-Benzyl-cyano-methyl)-carbamoyl]-3-fluoro-3-methyl-butylamino}-2,2,2-trifluoro-ethyl)-biphenyl-4-yl]-cyclopropanecarbonyl}-amino)-acetic acid methyl ester], with 3.1 nM; and `CC(C)(F)C[C@H](N[C@@H](c1ccc(-c2ccc([C@@H](O)C(F)F)cc2)cc1)C(F)(F)F)C(=O)N[C@H](C#N)Cc1ccc(S(C)(=O)=O)cc1` [Example 20, (S)-2-{(S)-1-[4′-((R)-2,2-Difluoro-1-hydroxy-ethyl)-biphenyl-4-yl]-2,2,2-trifluoro-ethylamino}-4-fluoro-4-methyl-pentanoic acid [(S)-1-cyano-2-(4-methanesulfonyl-phenyl)-ethyl]-amide], with 8.4 nM.
Then `CC(C)[C@H](N[C@@H](c1ccc(-c2ccc(C3(C(=O)O)CC3)cc2)cc1)C(F)(F)F)C(=O)N[C@H](C#N)Cc1ccc(C#N)cc1F` [Example 58, 1-{4′-[(S)-1-((S)-1-{[(S)-Cyano-(4-cyano-2-fluoro-benzyl)-methyl]-carbamoyl}-2-methyl-propylamino)-2,2,2-trifluoro-ethyl]-biphenyl-4-yl}-cyclopropanecarboxylic acid], with 0.3 nM; and `CC(C)(F)C[C@H](N[C@@H](c1ccc(-c2ccc(S(C)(=O)=O)cc2Cl)cc1)C(F)(F)F)C(=O)NC(C#N)Cc1ccc(C#N)cc1F` (stereo partly drawn) [Example 7, (S)-2-[(S)-1-(2′-Chloro-4′-methanesulfonyl-biphenyl-4-yl)-2,2,2-trifluoro-ethylamino]-4-fluoro-4-methyl-pentanoic acid [1-cyano-2-(4-cyano-2-fluoro-phenyl)-ethyl]-amide], with 0.9 nM.
In turn, `CS(=O)(=O)c1ccc(-c2ccc([C@H](N[C@@H](CC(Cl)Cl)C(=O)N[C@H](C#N)Cc3ccc(C#N)cc3F)C(F)(F)F)cc2)cc1` [Example 1, (S)-4,4-Dichloro-N-[(S)-cyano-(4-cyano-2-fluoro-benzyl)-methyl]-2-[(S)-2,2,2-trifluoro-1-(4′-methanesulfonyl-biphenyl-4-yl)-ethylamino]-butyramide] had an IC50 of 0.14 nM.
For `CC(C)[C@H](N[C@@H](c1ccc(-c2ccc([C@@H](O)C(F)F)cc2)cc1)C(F)(F)F)C(=O)N[C@H](C#N)Cc1ccccc1` [Example 50, (S)-N-((S)-Benzyl-cyano-methyl)-2-{(S)-1-[4′-((R)-2,2-difluoro-1-hydroxy-ethyl)-biphenyl-4-yl]-2,2,2-trifluoro-ethylamino}-3-methyl-butyramide], the IC50 came to 3.2 nM.
For `CC(C)(F)C[C@H](N[C@@H](c1ccc(-c2ccc([C@@H](O)C(F)F)cc2)cc1)C(F)(F)F)C(=O)NC(C#N)Cc1ccc(C(F)(F)F)cc1F` (stereo partly drawn) [Example 37, (S)-2-{(S)-1-[4′-((R)-2,2-Difluoro-1-hydroxy-ethyl)-biphenyl-4-yl]-2,2,2-trifluoro-ethylamino}-4-fluoro-4-methyl-pentanoic acid [cyano-(2-fluoro-4-trifluoromethyl-benzyl)-methyl]-amide], the IC50 was determined as 9.3 nM.
Under `CC(C)(F)C[C@H](N[C@@H](c1ccc(-c2ccc(S(C)(=O)=O)cc2)cc1)C(F)(F)F)C(=O)N[C@H](C#N)Cc1ccccc1F` [Example 17, (S)-Fluoro-4-methyl-2-[(S)-2,2,2-trifluoro-1-(4′-methanesulfonyl-biphenyl-4-yl)-ethylamino]-pentanoic acid [(S)-1-cyano-2-(2-fluoro-phenyl)-ethyl]-amide] stands 0.9 nM; under `CC(C)(F)C[C@H](N[C@@H](c1ccc(-c2ccc([C@@H](O)C(F)F)cc2)cc1)C(F)(F)F)C(=O)N[C@H](C#N)Cc1ccc(C#N)cc1F` [Example 32, (S)-2-{(S)-1-[4′-((R)-2,2-Difluoro-1-hydroxy-ethyl)-biphenyl-4-yl]-2,2,2-trifluoro-ethylamino}-4-fluoro-4-methyl-pentanoic acid [(S)-cyano-(4-cyano-2-fluoro-benzyl)-methyl]-amide], 0.9 nM; under `CC(C)[C@H](N[C@@H](c1ccc(-c2ccncc2)cc1)C(F)(F)F)C(=O)N[C@H](C#N)Cc1ccccc1` [Example 49, (S)-N-((S)-Benzyl-cyano-methyl)-3-methyl-2-[(S)-2,2,2-trifluoro-1-(4-pyridin-4-yl-phenyl)-ethylamino]-butyramide], 5.6 nM.
Under `CC(C)(O)Cc1ccc(-c2ccc([C@H](N[C@@H](CC(C)(C)F)C(=O)N[C@H](C#N)Cc3ccc(C#N)cc3F)C(F)(F)F)cc2)cc1` [Example 42, (S)-4-Fluoro-4-methyl-2-{(S)-2,2,2-trifluoro-1-[4′-(2-hydroxy-2-methyl-propyl)-biphenyl-4-yl]-ethylamino}-pentanoic acid [(S)-1-cyano-2-(4-cyano-2-fluoro-phenyl)-ethyl]-amide] stands 0.9 nM.
Under `CC(C)(F)C[C@H](N[C@@H](c1ccc(-c2ccc(C3(C(=O)NCCO)CC3)cc2)cc1)C(F)(F)F)C(=O)N[C@H](C#N)Cc1ccccc1` [Example 52, 1-[4′-((S)-1-{(S)-1-[((S)-Benzyl-cyano-methyl)-carbamoyl]-3-fluoro-3-methyl-butylamino}-2,2,2-trifluoro-ethyl)-biphenyl-4-yl]-cyclopropanecarboxylic acid (2-hydroxy-ethyl)-amide] stands 2.8 nM.
For the compound `CCOC(=O)c1ccc(C[C@@H](C#N)NC(=O)[C@H](CC(C)(C)F)N[C@@H](c2ccc(-c3ccc(S(C)(=O)=O)cc3)cc2)C(F)(F)F)cc1` [Example 15, 4-((S)-2-Cyano-2-{(S)-4-fluoro-4-methyl-2-[(S)-2,2,2-trifluoro-1-(4′-methanesulfonyl-biphenyl-4-yl)-ethylamino]-pentanoylamino}-ethyl)-benzoic acid ethyl ester], the IC50 worked out at 4.4 nM.
